Here are results for 14 compounds from patent US20250154169A1, “COMPOUNDS AND METHODS FOR MODULATING SPLICING” (REMIX THERAPEUTICS INC., priority 2021, published 2025).

Holding throughout (format): cell-based, human
Assay [1] relates to SMN2 mRNA. Kind of assay: Splicing RT-qPCR gene panel, SMN2 canonical junction (CJ) mRNA. The settings on record: Homo sapiens, Tables 4A/4B, read-out: SMN2 (IC50, decrease in CJ mRNA, gene panel). In short, it runs like this:
(§1)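 Cells (A673 in DMEM/10% FBS, K562 in IMDM/10% FBS) got compound for 24 h, top dose 10 uM, 11 points, 3-fold steps, DMSO ≤0.25%. Lysates went to RT-qPCR for the canonical exon-exon junction; ΔΔCt against housekeeper and DMSO gave RQ, then percentage response.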

In assay [2] the test system is Target C mRNA. The experiment in a line: Splicing RT-qPCR gene panel, Target C canonical junction (CJ) mRNA. The settings on record: Homo sapiens, Tables 4A/4B, read-out: Target C (IC50, decrease in CJ mRNA, gene panel). In outline:
as §1

Assay [3] has as its system MYB mRNA. The experiment in a line: Splicing RT-qPCR assay, MYB canonical (CJ) and alternative (AJ) junction mRNA. The settings on record: Homo sapiens; for AC50: read-out: MYB AJ (AC50, increase in alternative junction mRNA). In outline: (§2)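 A673 or K562 cells were treated 24 h at 37 °C with an 11-point 3-fold compound dilution series (top 10 uM, DMSO ≤0.25%). Lysates went to one-step RT-qPCR measuring canonical (CJ) and alternative-exon (AJ) junction transcripts, normalized to GAPDH, GUSB or PPIA.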

Assay [4] deals with HTT mRNA. Kind of assay: Splicing RT-qPCR gene panel, HTT canonical junction (CJ) mRNA. The settings on record: Homo sapiens, Tables 4A/4B, read-out: HTT (IC50, decrease in CJ mRNA, gene panel). In short, it runs like this:
as §1

Assay [5] concerns HTT mRNA. The experiment in a line: Splicing RT-qPCR assay, HTT canonical (CJ) and alternative (AJ) junction mRNA. The settings on record: Homo sapiens, A673 or K562 cells, 24 hours compound treatment; for IC50: 24 h, read-out: HTT CJ (IC50, decrease in canonical junction mRNA); for AC50: read-out: HTT AJ (AC50, increase in alternative junction mRNA). In outline: as §2
Setting [6] is: 24 h, A673 or K562 cells, 24 hours compound treatment, RT-qPCR.
Where [7] appears, read: 24 h, A673 or K562 cells, 24 hours compound treatment, RT-qPCR, read-out: MYB CJ (IC50, decrease in canonical junction mRNA).
Where [8] appears, read: Tables 4A/4B, canonical junction qPCR panel, read-out: MYB (IC50, decrease in CJ mRNA, gene panel).

Where two headings read alike, the source gives them in different places.

As for `Cc1cn2cc(NC(=O)c3ccc(N4CCNCC4)c4cn(CC(C)(F)F)nc34)cc(F)c2n1` [Compound 364, 2-(2,2-difluoropropyl)-N-{8-fluoro-2-methylimidazo[1,2-a]pyridin-6-yl}-4-(piperazin-1-yl) indazole-7-carboxamide; trifluoroacetic acid], the half-inhibitory concentration (IC50) is < 100 nM in assay [1]; > 10 µM in assay [2]; 1000 to 10000 nM in assay [3] (setting [7]); 1000 to 10000 nM in assay [3] (setting [8]); 1 to 10 µM in assay [4]; 1000 to 10000 nM in assay [5]. The AC50 was 100 to 1000 nM in assay [3] (setting [6]) and > 10000 nM in assay [5].

Take `Cc1cn2cc(NC(=O)c3ccc(N4CCNCC4)c4cn(Cc5cnco5)nc34)cc(F)c2n1` [Compound 366, N-{8-fluoro-2-methylimidazo[1,2-a]pyridin-6-yl}-2-(1,3-oxazol-5-ylmethyl)-4-(piperazin-1-yl) indazole-7-carboxamide]: the IC50 in assay [1] is < 100 nM; in assay [2] it was > 10 µM; in assay [3] (setting [7]), < 100 nM; in assay [3] (setting [8]) it was < 100 nM; in assay [4], 1 to 10 µM; in assay [5], 1000 to 10000 nM. In addition, the AC50 was < 100 nM in assay [3] (setting [6]) and 1000 to 10000 nM in assay [5].

Turning to `COC(C)Cn1cc2c(N3CCNCC3)ccc(C(=O)Nc3cc(F)c4nc(C)cn4c3)c2n1` (stereo not shown) [Compound 367, N-{8-fluoro-2-methylimidazo[1,2-a]pyridin-6-yl}-2-(2-methoxypropyl)-4-(piperazin-1-yl) indazole-7-carboxamide; trifluoroacetic acid], the half-maximal inhibitory concentration (IC50) in assay [1] was < 100 nM; in assay [2] it was > 10 µM; in assay [3] (setting [7]), 100 to 1000 nM; in assay [3] (setting [8]), 100 to 1000 nM; in assay [4], 1 to 10 µM; in assay [5], 1000 to 10000 nM. Also, the concentration at half-maximal activity (AC50) in assay [3] (setting [6]) was 100 to 1000 nM; in assay [5], 1000 to 10000 nM.

Take `Cc1cn2cc(NC(=O)c3ccc(N4CCNCC4)c4cn(Cc5cn(C)nn5)nc34)cc(F)c2n1` [Compound 368, N-{8-fluoro-2-methylimidazo[1,2-a]pyridin-6-yl}-2-[(1-methyl-1,2,3-triazol-4-yl)methyl]-4-(piperazin-1-yl) indazole-7-carboxamide; trifluoroacetic acid]: the IC50 in assay [1] is < 100 nM; in assay [2], > 10 µM; in assay [3] (setting [7]), 100 to 1000 nM; in assay [3] (setting [8]), 100 to 1000 nM; in assay [4], > 10 µM; in assay [5] it was > 10000 nM. For the same compound, the AC50 is 100 to 1000 nM in assay [3] (setting [6]) and > 10000 nM in assay [5].

For `Cc1cn2cc(NC(=O)c3ccc(N4CCC(NCCO)CC4)c4cn(C)nc34)cc(F)c2n1` [Compound 369, N-{8-fluoro-2-methylimidazo[1,2-a]pyridin-6-yl}-4-{4-[(2-hydroxyethyl)amino]piperidin-1-yl}-2-methylindazole-7-carboxamide], the IC50 in assay [1] is < 100 nM; in assay [2], 1 to 10 µM; in assay [3] (setting [7]) it was < 100 nM; in assay [3] (setting [8]) it was < 100 nM; in assay [4] it was 0.1 to 1 µM; in assay [5], 100 to 1000 nM. Further, the half-maximal activity concentration (AC50) in assay [3] (setting [6]) was < 100 nM; in assay [5], 100 to 1000 nM.

Turning to `Cc1cn2cc(NC(=O)c3ccc(N4CCC(N)(C(F)(F)F)CC4)c4cn(C)nc34)cc(F)c2n1` [Compound 370, 4-[4-amino-4-(trifluoromethyl)piperidin-1-yl]-N-{8-fluoro-2-methylimidazo[1,2-a]pyridin-6-yl}-2-methylindazole-7-carboxamide], the 50% inhibitory concentration (IC50) is 100 to 1000 nM in assay [1]; > 10 µM in assay [2]; 100 to 1000 nM in assay [3] (setting [7]); 100 to 1000 nM in assay [3] (setting [8]); > 10 µM in assay [4]; > 10000 nM in assay [5]. Also, the AC50 in assay [3] (setting [6]) was 1000 to 10000 nM; in assay [5], > 10000 nM.

For `Cc1cn2cc(NC(=O)c3ccc(N4CC[C@@H](NC5CC5)C4)c4cn(C)nc34)cc(F)c2n1` [Compound 371, 4-[(3R)-3-(cyclopropylamino)pyrrolidin-1-yl]-N-{8-fluoro-2-methylimidazo[1,2-a]pyridin-6-yl}-2-methylindazole-7-carboxamide], the IC50 in assay [1] was < 100 nM; in assay [2] it was > 10 µM; in assay [3] (setting [7]), < 100 nM; in assay [3] (setting [8]) it was < 100 nM; in assay [4] it was > 10 µM; in assay [5], 100 to 1000 nM. Further, the values for the half-maximal activity concentration (AC50) in assay [3] (setting [6]) and in assay [5] were < 100 nM and 100 to 1000 nM, respectively.

`Cc1cn2cc(NC(=O)c3ccc(N4CC[C@H](NC5CC5)C4)c4cn(C)nc34)cc(F)c2n1` [Compound 372, 4-[(3S)-3-(cyclopropylamino)pyrrolidin-1-yl]-N-{8-fluoro-2-methylimidazo[1,2-a]pyridin-6-yl}-2-methylindazole-7-carboxamide]: the IC50 is < 100 nM in assay [1]; > 10 µM in assay [2]; < 100 nM in assay [3] (setting [7]); < 100 nM in assay [3] (setting [8]); > 10 µM in assay [4]; 1000 to 10000 nM in assay [5]. The half-maximal activity concentration (AC50) in assay [3] (setting [6]) is < 100 nM; in assay [5] it was 1000 to 10000 nM.

Turning to `Cc1cn2cc(NC(=O)c3ccc(N4CCC(NC5(CF)CC5)C4)c4cn(C)nc34)cc(F)c2n1` (stereo not shown) [Compound 373, N-{8-fluoro-2-methylimidazo[1,2-a]pyridin-6-yl}-4-(3-{[1-(fluoromethyl)cyclopropyl]amino}pyrrolidin-1-yl)-2-methylindazole-7-carboxamide], the half-maximal inhibitory concentration (IC50) in assay [1] is < 100 nM; in assay [2], > 10 µM; in assay [3] (setting [7]), < 100 nM; in assay [3] (setting [8]), < 100 nM; in assay [4] it was 1 to 10 µM; in assay [5], 1000 to 10000 nM. Further, the AC50 is < 100 nM in assay [3] (setting [6]) and 1000 to 10000 nM in assay [5].

On to `CCn1cc2c(N3CCC(NC)C3)ccc(C(=O)Nc3cc(F)c4nc(C)cn4c3)c2n1` (stereo not shown) [Compound 374, 2-ethyl-N-{8-fluoro-2-methylimidazo[1,2-a]pyridin-6-yl}-4-[3-(methylamino)pyrrolidin-1-yl]indazole-7-carboxamide], for which the 50% inhibitory concentration (IC50) in assay [1] is < 100 nM; in assay [2] it was > 10 µM; in assay [3] (setting [7]) it was < 100 nM; in assay [3] (setting [8]), < 100 nM; in assay [4] it was > 10 µM; in assay [5] it was > 10000 nM. The concentration at half-maximal activity (AC50) in assay [3] (setting [6]) is < 100 nM; in assay [5], > 10000 nM.

For `CCn1cc2c(N3CCC(N(C)C)C3)ccc(C(=O)Nc3cc(F)c4nc(C)cn4c3)c2n1` (stereo not shown) [Compound 375, 4-[3-(dimethylamino)pyrrolidin-1-yl]-2-ethyl-N-{8-fluoro-2-methylimidazo[1,2-a]pyridin-6-yl}indazole-7-carboxamide], the IC50 in assay [1] was < 100 nM; in assay [2], 0.1 to 1 µM; in assay [3] (setting [7]), 100 to 1000 nM; in assay [3] (setting [8]), 100 to 1000 nM; in assay [4], 0.1 to 1 µM; in assay [5] it was 100 to 1000 nM. Also, the AC50 in assay [3] (setting [6]) and in assay [5] was 100 to 1000 nM throughout.

Regarding `CCn1cc2c(N3CCC(NC4CC4)CC3)ccc(C(=O)Nc3cc(F)c4nc(C)cn4c3)c2n1` [Compound 376, 4-[4-(cyclopropylamino)piperidin-1-yl]-2-ethyl-N-{8-fluoro-2-methylimidazo[1,2-a]pyridin-6-yl}indazole-7-carboxamide], the half-inhibitory concentration (IC50) in assay [1] was < 100 nM; in assay [2] it was > 10 µM; in assay [3] (setting [7]), 100 to 1000 nM; in assay [3] (setting [8]) it was < 100 nM; in assay [4] it was 1 to 10 µM; in assay [5], 100 to 1000 nM. Moreover, the AC50 in assay [3] (setting [6]) is 100 to 1000 nM; in assay [5], 1000 to 10000 nM.

Turning to `CCn1cc2c(N3C[C@@H](C)N[C@@H](C)C3)ccc(C(=O)Nc3cc(F)c4nc(C)cn4c3)c2n1` [Compound 377, 4-[(3R,5S)-3,5-dimethylpiperazin-1-yl]-2-ethyl-N-{8-fluoro-2-methylimidazo[1,2-a]pyridin-6-yl}indazole-7-carboxamide], the half-maximal inhibitory concentration (IC50) in assay [1] was < 100 nM; in assay [2], 1 to 10 µM; in assay [3] (setting [7]), 100 to 1000 nM; in assay [3] (setting [8]) it was < 100 nM; in assay [4], 1 to 10 µM; in assay [5] it was 1000 to 10000 nM. The concentration at half-maximal activity (AC50) in assay [3] (setting [6]) fell in the range of 100 to 1000 nM; in assay [5] it was 1000 to 10000 nM.

Turning to `CCn1cc2c(N3CCN(C)CC3)ccc(C(=O)Nc3cc(F)c4nc(C)cn4c3)c2n1` [Compound 378, 2-ethyl-N-{8-fluoro-2-methylimidazo[1,2-a]pyridin-6-yl}-4-(4-methylpiperazin-1-yl) indazole-7-carboxamide], the IC50 was < 100 nM in assay [1]; > 10 µM in assay [2]; 100 to 1000 nM in assay [3] (setting [7]); < 100 nM in assay [3] (setting [8]); 1 to 10 µM in assay [4]; 1000 to 10000 nM in assay [5]. Also, the half-maximal activity concentration (AC50) was 100 to 1000 nM in assay [3] (setting [6]) and 1000 to 10000 nM in assay [5].
